The source of these data is US20190062697A1, “Cell Differentiation Marker and its Uses” (Centre National De La Recherche Scientifique (CNRS), priority 2013, published 2019).

For data set [1], the system named is ES cells. Nature of the data set: BrdU pulse-labelling / FACS of synchronized ES cells UV-irradiated in G1 (S-phase entry). The format is cell-based, mouse. The conditions noted are these: 24 hours knockdown, UV light in G1, collected 2 hours after UV. On the procedure: FIG. 4F is a histogram showing Cdc25A downregulation in G1 delay upon DNA damage. Control (a.) and Cdc25A (b.) RNAi-transfected cells were released from nocodazole and exposed to UV light in G1 (t=2) and collected 2 hours (t=4) after UV-(+) or mock-irradiation (−). Prior to collection cells were pulse-labelled with BrdU. Fraction (expressed as %) of diploid BrdU negative cells is plotted (data are represented as mean±SD). Statistical differences is indicated with a single asterisk (*) for P<0.05. Y-axis represents the percentage of cells in G1.
ES cells were arrested in prometaphase by nocodazole (Sigma) for 4-8 hours. After mitotic-shake off cells were washed 3 times in ice-cold PBS and dissolved in full ES growth medium. Cells were incubated in a humidified atmosphere of 5% CO2 at 37° C. for 45 minutes and placed at 30° C. for 1 hour to reduce S phase entry. Cells were mock- or UV-irradiated (6 J/m2) and incubated at 37° C. prior collection. To synchronise NIH-3t3 cells in G0 cells were grown to confluence and incubated for 2-3 days. Next, cells were washed, resuspended and split at 30% confluency. […]
Single-cell suspensions were prepared by trypsinisation and washed once in PBS. […] The BrdU content was determined by reaction with a fluorescein isothiocyanate (FITC)-conjugated anti-BrdU antibody (BD Biosciences). Cells were analyzed with a FACScalibur flow cytometer using CellQuestPro software.

Another data set deals with CDK2^Y15P. Nature of the data set: Western blot of inhibitory CDK2 Tyr15 phosphorylation upon DNA damage in G1. The note with it: 24 hours knockdown, UV light in G1. The format is cell-based, mouse. An excerpt: FIG. 4E is a western blot showing the downregulation of Cdc25A expression by RNAi resulting in increased inhibitory CDK2Tyr15 phosphorylation upon DNA damage in G1. Control (a.) and Cdc25A (b.) RNAi-transfected cells were released from nocodazole and exposed (+) to UV-light in G1. Samples were collected at the indicated times and analyzed by western blotting with the indicated antibodies: Cdc25A (#1), Cdk2^Y15P (#2), Cyclin B1 (#3), Chk1^S345P (#4), Chk1 (#5) and β-actin (#6; as control).
Western blot signals of FIG. 4E were quantified by densitometry scanning and expressed as relative optical density (ROD) compared to Chk1 signal as loading control. Black bars represent cells treated with Cdc25A RNAi (a.) and white bars represent cells treated with control RNAi (b.).
Cells were rinsed once in PBS and then incubated with ice cold lysis buffer (50 mM Tris-HCl pH 7.4, 100 mM NaCl, 50 mM NaF, 5 mM EDTA, 40 mM β-glycero-phosphate, 1% Triton X-100 and protease inhibitors) for 30 min on ice before scraping. Whole cell extracts were clarified by centrifugation at 12000 rcf for 10 min at 4° C. Protein concentration of the clarified lysates was estimated using BCA method (Pierce). Equal amount of protein was used for western blot analysis. All antibodies were incubated overnight at 4° C. in phosphate-buffered saline (PBS) containing 1% BSA and 0.1% Tween (Sigma). […]

Data set [2] has as its system ES cells. Nature of the data set: Clonogenic assay of ES cells with alkaline phosphatase (AP) staining. The format is cell-based, mouse. The note with it: prolonged (7 days) RNAi knockdown, in the presence of LIF. How it is done: FIG. 12M is a histogram showing a clonogenic assay of ES cells upon prolonged control (1), Dub3 (2) or Cdc25a (3) targeting RNAi sequence. Cells were plated at clonal density in LIF-containing serum and stained for AP after 7 days. Columns show the percentage of alkaline phosphatase (AP) positive (dark grey) or negative (light grey) colonies. At least 150 colonies were scored.

The next data set has as its system Cdc25A. Nature of the data set: Western blot analysis of Cdc25A protein levels in ES cells. The format is cell-based, mouse. On the procedure: Cells were UV-irradiated and incubated with cycloheximide (Cx) in absence or presence of Chk1 inhibitor SB218078, collected at the indicated times (min) and analyzed by western blotting. Cdc25A expression (#1) and β-actin (#2; as control) are shown.
FIG. 6J is a western blot analysis of Cdc25A protein expression in Luciferase (a.), β-TrCP (b.) and Cdh1 (c.) RNAi-transfected cells. Expression of Cdc25A (#1) and β-actin (#2) is shown.
Expression of CDC25A (#1), Cdc25C (#2) and β-actin (#3, as control) is represented.
FIG. 9B is a western blot analysis of Cdc25A protein levels in ES cells treated with increasing concentrations (in μM) of the DY131 agonist for 16 hours. Cdc25A (#1) and β-actin (#2, as control) protein expression is represented.
Cells were rinsed once in PBS and then incubated with ice cold lysis buffer (50 mM Tris-HCl pH 7.4, 100 mM NaCl, 50 mM NaF, 5 mM EDTA, 40 mM β-glycero-phosphate, 1% Triton X-100 and protease inhibitors) for 30 min on ice before scraping. Whole cell extracts were clarified by centrifugation at 12000 rcf for 10 min at 4° C. Protein concentration of the clarified lysates was estimated using BCA method (Pierce). Equal amount of protein was used for western blot analysis. All antibodies were incubated overnight at 4° C. in phosphate-buffered saline (PBS) containing 1% BSA and 0.1% Tween (Sigma). Antibodies used from Cell Signaling: Chk1S345P (2341), p53S15P (9284), γH2AX (2577), CDK2Y15P (9111), Myc-Tag (2276); Active caspase 3 (9961); Abcam: DNA polα (ab31777), H3 (ab1791), CDK2 (ab6538), PSTAIR (ab10345), GFP (ab290), MCM2 (ab4461); Suds3 (ab3740) Santa Cruz: Cdc45 (sc-20685), Cdc25A (sc-7389), Chk1 (sc-8408), Cyclin B1 (sc-245), Cdc25C (sc-327), Cdc25B (sc-65504), p21 (sc-6246), RhoA (sc-418); anti-goat IgG-HRP (sc-2020) Sigma: (PC10), β-actin (A1978), Cyclin A (C7410), Anti-Flag M2 (F1804), Oct4 (Chemicon, AB3209), and Millipore, Nestin (Ab353), H3S10P (Millipore 09-797). Wee1 (kindly provided by T. Lorca, CRBM Montpellier).

The test system of a further data set is Cdc25A mRNA. Nature of the data set: qPCR quantification of Cdc25A mRNA in ES cells. The format is cell-based, mouse. How it is done: FIG. 6I is a histogram showing qPCR quantification of Cdc25A normalised to multiple reference genes expressed as percentage of control. ES cells were transfected with control (Luc), β-TrCP (1), Cdh1 (2) or Dub3 (3) RNAi sequences and collected 48 hours after transfection. Bars represent the mean±SD of triplicate observations.
FIG. 7C is a histogram showing the qPCR quantification of Cdc25A mRNA normalised to multiple reference genes. ES cells were transfected with control (1), Dub3 (2) or Cdc25A (3) RNAi sequences.
(§1) FIG. 9A is a graph showing qPCR quantification of Cdc25A (curves with black squares) and Dub3 (curves with triangles) mRNA in ES cells treated with increasing concentration of the selective Esrrb and Esrrg agonist DY131 (indicated doses in μM) for 16 hours. Bars represent the fold induction±SD of triplicate observations.
Briefly, ES cells were maintained in Glasgow MEM BHK-21 (GMEM) supplemented with 10% fetal bovine serum, non-essential amino acids, L-glutamine, sodium pyruvate, β-mercapthethanol. NIH-3t3 cells were maintained in Dulbecco's modified eagle's medium (DMEM) supplemented with 10% fetal bovine serum, 2 mM glutamine and antibiotics. […]
(§2) Total RNA was isolated with TRIzol reagent (Invitrogen). […] Quantitative PCRs were performed using Lightcycler SYBR Green I Master mix (Roche) on Lightcycler apparatus (Roche). […]

A further data set relates to Dub3 mRNA. Nature of the data set: qPCR quantification of Dub3 mRNA in ES cells. The conditions noted are these: increasing dose of DY131, 16 hours. The format is cell-based, mouse. How it is done: as §1
FIG. 9C is a histogram showing qPCR quantification of Esrrb (1) and Dub3 (2) mRNA normalised to multiple reference genes expressed as percentage of control in presence of DY131. ES cells were transfected with control (Crtl) RNAi (white bars) or Esrrb specific RNAi sequence (black bars). Data are expressed as mean±SD (error bars) of multiple observations.
Briefly, ES cells were maintained in Glasgow MEM BHK-21 (GMEM) supplemented with 10% fetal bovine serum, non-essential amino acids, L-glutamine, sodium pyruvate, β-mercapthethanol. NIH-3t3 cells were maintained in Dulbecco's modified eagle's medium (DMEM) supplemented with 10% fetal bovine serum, 2 mM glutamine and antibiotics. The viruses-containing conditioned medium was incubated on exponentially growing NIH-3t3 cells for 24 hours in the presence of polybrene ([…]). […]
as §2

Data set [3] deals with deubiquitylating enzymes (DUBs). The note with it: cited from earlier work.
The subject of data set [4] is ES cells. Nature of the data set: FACS cell cycle analysis of asynchronously growing ES cells treated with roscovitine. The format is cell-based, mouse. The conditions noted are these: increasing concentration of roscovitine. On the procedure: FIG. 5C is FACS analysis of asynchronously growing ES cells treated with increasing concentration of Roscovitine (in μM; Z-axis). Roscovitine is a potent and selective inhibitor of cyclin-dependent kinases, […]. X-axis represents DNA content (expressed in propidium iodide fluorescence) and Y-axis represents the number of cells.
Single-cell suspensions were prepared by trypsinisation and washed once in PBS. Cells were fixed in ice-cold 70% ethanol (−20° C.) and stored at −20° C. overnight. Following RNAse A treatment, total DNA was stained with propidium iodide (25 μg/ml). For BrdU uptake analysis, ES cells and NIH-3t3 cells were grown in the presence of 10 μM BrdU for respectively 10 and 30 minutes. The BrdU content was determined by reaction with a fluorescein isothiocyanate (FITC)-conjugated anti-BrdU antibody (BD Biosciences). Cells were analyzed with a FACScalibur flow cytometer using CellQuestPro software.

Setting [5] is: RNAi-mediated knockdown in ES cells.
The mark [6] stands for this setting: increasing dose of DY131, 16 hours, ES cells.

As for “5′-GAAAUUUCCCUGACGAGAA-3′ (listed as RNA, chemistry not given here) [Cdc25A RNAi]”, in the data set on ES cells [1], the “BrdU-negative cells with 2N DNA content” value is “significant, UV-dependent, increase of BrdU-negative cells with 2N DNA content”. Besides, the “CDK2^Y15P levels” value in the data set with CDK2^Y15P is on record as “increased CDK2^Y15P levels”. Besides, the “alkaline phosphatase (AP)-negative colonies” value in the data set with ES cells [2] is “A very similar result was also observed”.
As for “5′-GGCUGUAAGAUGUGUGCUA-3′ (listed as RNA, chemistry not given here) [Dub3 RNAi]”, the “reduction of Cdc25A protein abundance” value with Cdc25A (setting [5]) came out at 3 fold. The “alkaline phosphatase (AP)-negative colonies” value in the data set with ES cells [2] is recorded as “increase of alkaline phosphatase (AP)-negative colonies”. Besides, the “Cdc25A mRNA level” value in the data set with Cdc25A mRNA (setting [5]) is “did not affect Cdc25A mRNA level”.
Turning to `CCN(CC)c1ccc(/C=N/NC(=O)c2ccc(O)cc2)cc1` [DY131], the Dub3 gene expression entry in the data set on Dub3 mRNA is “boosted Dub3 gene expression”. Also, the Cdc25A protein abundance entry with Cdc25A (setting [6]) is on record as “increased Cdc25A protein abundance”. In addition, the Cdc25A transcript level entry in the data set on Cdc25A mRNA (setting [6]) is recorded as “without affecting Cdc25A transcript level”.
With `N#CSc1cc(SC#N)c(N)nc1N` [PR-619], in data set [3], the “accumulation of polyubiquitylated proteins in cells” value was “induces the accumulation of polyubiquitylated proteins in cells” and the proteasome activity result was “without directly affecting proteasome activity”.
As for `O=C1NC(=O)c2c1c1c3ccccc3n3c1c1c2c2ccccc2n1C1CCC3O1` [SB218078], the “Cdc25A destruction upon DNA damage” value in the data set on Cdc25A (UV-irradiated ES cells with cycloheximide, absence or presence of Chk1 inhibitor) is listed as “rapid Cdc25A destruction upon DNA damage is Chk1-dependent”.
As for `CC[C@H](CO)Nc1nc(NCc2ccccc2)c2ncn(C(C)C)c2n1` [roscovitine], in the data set on ES cells [4], the G1 cells entry is reported as “dose-dependent increase of G1 cells” and the “fraction of S phase cells” value is on record as “reduced the fraction of S phase cells”.
